The values below are quoted from earlier work in patent publication US20050032891A1, “Method for treating alcoholic hepatitis” (University of Pittsburgh-of the Commonwealth System of …, priority 2003, published 2005).

The subject of the series is rats subjected to hemorrhagic shock and resuscitation. The conditions noted are these: treatment with EP.

In the case of `CCOC(=O)C(C)=O` [EP, ethyl pyruvate], the hepatic lipid peroxidation result is given as “decreases hepatic lipid peroxidation”.
